Source: patent US20220062379A1, “METHODS AND COMPOSITIONS FOR MODULATING IMMUNE DYSREGULATION” (The General Hospital Corporation, priority 2019, published 2022)

What was measured:
IL6 = test: Whole blood cytokine release, IL6 (ELISA); assay type: cell-based; conditions: diluted human whole blood, LPS 1.5 ng/ml, 18 h, mean ± 95% confidence intervals; for inhibition at 25 µM / inhibition at 50 µM / inhibition at 100 µM: read-out: % Inhibition of cytokine release, relative to vehicle: IL6
Experimental: (§1) Fresh, anonymized, heparinized, human blood from male donors was diluted 1:3 with RPMI containing penicillin and streptomycin. 150 μl diluted blood was added to each well of a 96 well plate then acclimatized to 37° C. and 5% CO2 for 1 hour. Inhibitors were prepared as described below then added to the diluted blood in 25 μl volume. After a further hour at 37° C. with 5% CO2, diluted blood was stimulated with LPS diluted in 25 μl RPMI containing penicillin and streptomycin to a final concentration of 1.5 ng/ml. After 18 h at 37° C. and 5% CO2, diluted blood was centrifuged at 500×g for 5 min and supernatant collected and stored at −20° C. until ELISAs were performed. Data are presented as mean inhibition relative to vehicle control ±95% confidence intervals, n=3-4 independent experiments.
(§2) Inhibitors and vehicles used for resuspension were: Compound 26, EMD Millipore, Cat #5.31237.0001, resuspended in DMSO; PF 06650833, R & D Systems, Cat #6373, resuspended in DMSO; OEPC (oleyloxyethyl phosphorylcholine), Santa Cruz Biotechnology, item # sc-200711, resuspended in DMSO; YM26734, Santa Cruz Biotechnology, item # sc-204410, resuspended in DMSO; Isoquercetin, Cayman Chemical, item #24926, resuspended in DMSO; ISA-2011B, Medchem Express, cat # HY-16937, resuspended in DMSO; Benzamil, TOCRIS, Cat #3380/10, resuspended in water; Cell permeable NFAT inhibitor (11R-VIVIT), Tocris, Cat #5710, resuspended in PBS. ELISAs were performed using Duoset reagents from R&D systems, catalogue # DY210 (human TNF), # DY206 (human IL6), and #DY201 (human IL-1β).

IL1β = test: Whole blood cytokine release, IL-1β (ELISA); assay type: cell-based; conditions: diluted human whole blood, LPS 1.5 ng/ml, 18 h, mean ± 95% confidence intervals; for inhibition at 25 µM / inhibition at 50 µM / inhibition at 100 µM: read-out: % Inhibition of cytokine release, relative to vehicle: IL1β
Experimental: as §1, §2

TNF = test: Whole blood cytokine release, TNF (ELISA); assay type: cell-based; conditions: diluted human whole blood, LPS 1.5 ng/ml, 18 h, mean ± 95% confidence intervals; for inhibition at 25 µM / inhibition at 50 µM / inhibition at 100 µM: read-out: % Inhibition of cytokine release, relative to vehicle: TNF
Experimental: as §1, §2

[1] = system: proinflammatory cytokine release; test: Whole blood cytokine release assay, cytokines not itemised; assay type: cell-based, human; conditions: for Effect on (proinflammatory) cytokine release in whole blood assay (in words): in response to LPS stimulation
Experimental: as §1, §2
Where direct chemical modulators of the proposed inflammatory modulators were available, we tested their effect on endothelial permeability using ECIS and/or on the leukocyte inflammatory response using the whole blood assay described above.
Agents used were SJ000291942 (Sigma #SML2087-5MG) and saxagliptin (Santa Cruz Biotechnology #sc-473161), both resuspended in DMSO.

[2] = molecular target: NFATC2 (Nuclear Factor Of Activated T Cells 2) (human)

O=c1c(O[C@@H]2O[C@H](CO)[C@@H](O)[C@H](O)[C@H]2O)c(-c2ccc(O)c(O)c2)oc2cc(O)cc(O)c12 [Isoquertecin, Isoquercetin]
inhibition at 25 µM (IL6; 25 μM): 26% | inhibition at 50 µM (IL6; 50 μM): 31% | inhibition at 100 µM (IL6; 100 μM): 26% | inhibition at 25 µM (IL1β; 25 μM): 15% | inhibition at 50 µM (IL1β; 50 μM): 25% | inhibition at 100 µM (IL1β; 100 μM): 19% | inhibition at 25 µM (TNF; 25 μM): 9% | inhibition at 50 µM (TNF; 50 μM): 23% | inhibition at 100 µM (TNF; 100 μM): 29%

CCCCCCCCCCCC(=O)c1c(O)c(C(=O)CCCCCCCCCCC)c(O)c(C2CC(c3ccc(O)cc3)Oc3cc(O)ccc32)c1O (stereo not shown) [YM26734]
% Inhibition of cytokine release, relative to vehicle: IL6 (IL6; 12.5 μM): 35% ± 18.8% | % Inhibition of cytokine release, relative to vehicle: IL6 (IL6; 25 μM): 51% ± 29.5% | % Inhibition of cytokine release, relative to vehicle: IL6 (IL6; 50 μM): 67% ± 21.7% | % Inhibition of cytokine release, relative to vehicle: IL6 (IL6; 100 μM): 67% ± 15.1% | % Inhibition of cytokine release, relative to vehicle: IL1β (IL1β; 12.5 μM): 51% ± 12.0% | % Inhibition of cytokine release, relative to vehicle: IL1β (IL1β; 25 μM): 65% ± 3.5% | % Inhibition of cytokine release, relative to vehicle: IL1β (IL1β; 50 μM): 73% ± 11.3% | % Inhibition of cytokine release, relative to vehicle: IL1β (IL1β; 100 μM): 78% ± 8.9% | % Inhibition of cytokine release, relative to vehicle: TNF (TNF; 12.5 μM): 41% ± 17.6% | % Inhibition of cytokine release, relative to vehicle: TNF (TNF; 25 μM): 55% ± 22.6% | % Inhibition of cytokine release, relative to vehicle: TNF (TNF; 50 μM): 64% ± 26.1% | % Inhibition of cytokine release, relative to vehicle: TNF (TNF; 100 μM): 52% ± 22.7% | Effect on (proinflammatory) cytokine release in whole blood assay (in words) [1]: dose-dependent inhibition

CCCCCCCCCCCCCCCCCCc1ccc(C(=O)/C=C/C(=O)O)cc1 [OBAA]
Effect on (proinflammatory) cytokine release in whole blood assay (in words) [1]: dose-dependent inhibition

CN1CC(=O)N2[C@H](c3c[nH]c4ccc(Cl)cc34)c3cc4c(cc3C[C@H]2C1=O)OCO4 [ISA-2011B]
% Inhibition of cytokine release, relative to vehicle: IL6 (IL6; 1 μM): −7% ± 7.7% | % Inhibition of cytokine release, relative to vehicle: IL6 (IL6; 10 μM): 6% ± 19.7% | % Inhibition of cytokine release, relative to vehicle: IL6 (IL6; 100 μM): 24% ± 19.5% | % Inhibition of cytokine release, relative to vehicle: IL1β (IL1β; 1 μM): 17% ± 9% | % Inhibition of cytokine release, relative to vehicle: IL1β (IL1β; 10 μM): 23% ± 6% | % Inhibition of cytokine release, relative to vehicle: IL1β (IL1β; 100 μM): 86% ± 2.9% | % Inhibition of cytokine release, relative to vehicle: TNF (TNF; 1 μM): 1% ± 11.2% | % Inhibition of cytokine release, relative to vehicle: TNF (TNF; 10 μM): 17% ± 7.6% | % Inhibition of cytokine release, relative to vehicle: TNF (TNF; 100 μM): 55% ± 8.8% | Effect on (proinflammatory) cytokine release in whole blood assay (in words) [1]: inhibits cytokine release

NC(=NCc1ccccc1)NC(=O)c1nc(Cl)c(N)nc1N [Benzamil]
inhibition at 25 µM (IL6; 25 μM): 11% | inhibition at 50 µM (IL6; 50 μM): 22% | inhibition at 100 µM (IL6; 100 μM): 65% | inhibition at 25 µM (IL1β; 25 μM): 32% | inhibition at 50 µM (IL1β; 50 μM): 48% | inhibition at 100 µM (IL1β; 100 μM): 60% | inhibition at 25 µM (TNF; 25 μM): 4% | inhibition at 50 µM (TNF; 50 μM): 23% | inhibition at 100 µM (TNF; 100 μM): 69%

CCCCCCCC/C=C\CCCCCCCCOCCOP(=O)([O-])OCC[N+](C)(C)C [OEPC, oleyloxyethyl phosphorylcholine]
% Inhibition of cytokine release, relative to vehicle: IL6 (IL6; 12.5 μM): −3% ± 17.6% | % Inhibition of cytokine release, relative to vehicle: IL6 (IL6; 25 μM): 39% ± 14.1% | % Inhibition of cytokine release, relative to vehicle: IL6 (IL6; 50 μM): 65% ± 11.7% | % Inhibition of cytokine release, relative to vehicle: IL6 (IL6; 100 μM): 83% ± 6.2% | % Inhibition of cytokine release, relative to vehicle: TNF (TNF; 12.5 μM): −9% ± 17.3% | % Inhibition of cytokine release, relative to vehicle: TNF (TNF; 25 μM): 6% ± 17.4% | % Inhibition of cytokine release, relative to vehicle: TNF (TNF; 50 μM): 37% ± 14.7% | % Inhibition of cytokine release, relative to vehicle: TNF (TNF; 100 μM): 57% ± 6.5%

CCc1ccc(OCC(=O)Nc2ccc(F)c([N+](=O)[O-])c2)cc1 [SJ000291942]
Proinflammatory cytokine secretion from whole blood (in words) ([1]; whole blood with and without LPS, BMP receptor signaling agonist, FIG. 81C): enhances proinflammatory cytokine secretion

Cell permeable NFAT inhibitor (11R-VIVIT) (peptide)
% Inhibition of cytokine release, relative to vehicle (TNF; LPS-stimulated human whole blood, 50 µM 11R-VIVIT) [2]: 79%

11R-VIVIT
% Inhibition of cytokine release, relative to vehicle: IL6 (IL6; 12.5 μM): −10% ± 16.7% | % Inhibition of cytokine release, relative to vehicle: IL6 (IL6; 25 μM): 2% ± 32.9% | % Inhibition of cytokine release, relative to vehicle: IL6 (IL6; 50 μM): 87% ± 17.9% | % Inhibition of cytokine release, relative to vehicle: IL1β (IL1β; 12.5 μM): 32% ± 13.0% | % Inhibition of cytokine release, relative to vehicle: IL1β (IL1β; 25 μM): 48% ± 27.4% | % Inhibition of cytokine release, relative to vehicle: IL1β (IL1β; 50 μM): 51% ± 26.3% | % Inhibition of cytokine release, relative to vehicle: TNF (TNF; 12.5 μM): 23% ± 12.2% | % Inhibition of cytokine release, relative to vehicle: TNF (TNF; 25 μM): 40% ± 7.1% | % Inhibition of cytokine release, relative to vehicle: TNF (TNF; 50 μM): 79% ± 14.3%
